# Assays:
# MMP-9 = target: T1, MMP-9 (Homo sapiens, UniProt P14780); assay: MMP-9 spectrofluorometric enzyme activity assay; format: biochemical; conditions: 50 μM compound; read-out: MMP-9 activity inhibited
# T1 construct: made in house; host or cells: Sf21 insect cells, baculovirus (pBlueBac4.5)
# Procedure: (§1) MMP-1, MMP-2, MMP-9 and MMP-13 were cloned and prepared from insect cells (Sf21 insect cell) by using a Baculovirus system.
# (§2) Each cDNA for corresponding MMPs was cloned to a pBlueBac4.5 transfer vector (Invitrogen, Cat no. V1995-20), and then transfected to Sf21 cells with a Bac-N-Blue Transfection Kit (Invitrogen, Cat no. K855-01). Sf21 cells were incubated with a TNM-FH (Sigma, St. Louis, Mo., U.S.A) media containing 10% fetal bovine serum at 27° C., then harvested and re-suspended at a concentration of 10^7 cell/Ml. The cell suspension was incubated with a virus containing the cloned gene for 1 hr at room temperature. Infected Sf21 cells were grown for 72 hrs and the medium was recovered, and the MMP was purified. MMP-2 (GENEBANK No. XM—048244) and MMP-9 (GENEBANK No. XM—009491) were recovered from a gelatin-sepharose affinity column (Sigma, G5384) by eluting with 5% DMSO-containing buffer. […]
# (§3) As a control, 2 Ml of reaction buffer (50 mM Tricine, pH 7.5, 10 mM CaCl2, 200 mM NaCl) comprising DMSO, 10 nM of enzyme and 10 μM of substrate was prepared in a cuvette. Fluorescence intensity was measured for 5-10 min at room temperature with a spectrofluorometer.
# (§4) 50 μM Chalcone or its derivatives were added to a reaction buffer containing a substrate and enzyme, and fluorescence intensity was measured in the same manner.
# TPA-induced ear edema = TPA-induced ear edema model; format: in vivo, ICR mouse
# Procedure: To observe the anti-inflammatory effects of chalcone or its derivatives edema was induced in the ear by topical application of 10 ul of TPA (Tetradecanoylphorbol acetate) in acetone (2.5 ug/ear) to both the inner and outer surface of one ear of each 6-week-old ICR mouse. 5% of Chalcone or its derivatives diluted with acetone were applied separately to each ear topically immediately after TPA. The reference drug, indomethacin (0.5 mg/ear), was administered as a positive control. Ear thickness was measured before and 4 hours after treatment with the irritant using a micrometer (Mitutoyo Co.). Ear thickness was expressed as the mean of the difference between thickness before and after challenge. Inhibition ratio percentage of edema was expressed as the reduction in thickness with respect to the control treated only with TPA. As shown in FIG. 6 and Table 2, chalcone or its derivatives suppressed the TPA-induced ear edema.
# [1] = tested on: human umbilical vein endothelial cells (HUVECs); assay: Tube formation of HUVEC on Matrigel; format: cell-based; conditions: 50 μM, 8-16 hrs
# Description: The effect of chalcone or its derivatives on human endothelial cells was investigated to evaluate the biological effect of chalcones as MMP inhibitors. Since MMPs are responsible for the degradation of extracellular matrix, chalcone or its derivatives can inhibit the formation of tubular network of vessel, which represent migration and differentiation of endothelial cell. Blood vessel endothelial cells, human umbilical vein endothelial cells (HUVECs), were isolated from freshly obtained cords after cesarean section according to Grants' method (Grants D. S., et al., Cell, 58, pp933-943, 1989). They were identified by immunocytochemical staining with anti-Factor VIII antibody. HUVECs cultured on Matrigel (BD Bioscience, Bedford, Mass., USA) were treated with 50 μM of chalcone or its derivatives, and further incubated at 37° C. for 8-16 hrs. As a control, the procedure was repeated with the solvent of the above compounds.
# [2] = Skin sensitization by human patch test; format: in vivo; conditions: interpretation of skin average reactivity
# Procedure: The effect of chalcone on skin sensitization was studied by general method of skin patch test. The skin patch test was done against human subjects of ten adults. Test patch (2 cm×2 cm) included 0.2 ml of cream containing 0.01%-1.0% chalcone. The patches were applied to the backs of subjects. The patch was removed after 48 hours or 96 hours, and the skin responses of subjects were recorded and evaluated as shown in Table 4. The skin average reactivity calculated by equation 1 was interpreted as the degree of skin sensitivity in Table 5. According to the skin patch test, chalcone was nonreactive to skin sensitization (Table 6).
# MMP-1 = target: T2, MMP-1 (Homo sapiens, UniProt P03956); assay: MMP-1 spectrofluorometric enzyme activity assay; format: biochemical; conditions: 50 μM compound; read-out: MMP-1 activity inhibited
# T2 construct: made in house; host or cells: Sf21 insect cells, baculovirus (pBlueBac4.5)
# T2 sequence (P03956 100-469): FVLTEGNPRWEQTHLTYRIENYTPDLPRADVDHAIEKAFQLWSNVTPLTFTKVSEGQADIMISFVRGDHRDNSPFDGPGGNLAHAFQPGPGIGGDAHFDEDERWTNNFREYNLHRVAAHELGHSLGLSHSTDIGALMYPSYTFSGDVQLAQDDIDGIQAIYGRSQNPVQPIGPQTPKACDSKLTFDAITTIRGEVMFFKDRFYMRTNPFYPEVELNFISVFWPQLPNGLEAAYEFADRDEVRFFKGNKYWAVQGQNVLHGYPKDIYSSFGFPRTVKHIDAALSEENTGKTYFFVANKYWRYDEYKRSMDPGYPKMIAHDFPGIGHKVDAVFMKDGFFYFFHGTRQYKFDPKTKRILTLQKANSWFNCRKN
# Procedure: as §1, §2, §3, §4
# T1 sequence (P14780 107-707 limits assumed): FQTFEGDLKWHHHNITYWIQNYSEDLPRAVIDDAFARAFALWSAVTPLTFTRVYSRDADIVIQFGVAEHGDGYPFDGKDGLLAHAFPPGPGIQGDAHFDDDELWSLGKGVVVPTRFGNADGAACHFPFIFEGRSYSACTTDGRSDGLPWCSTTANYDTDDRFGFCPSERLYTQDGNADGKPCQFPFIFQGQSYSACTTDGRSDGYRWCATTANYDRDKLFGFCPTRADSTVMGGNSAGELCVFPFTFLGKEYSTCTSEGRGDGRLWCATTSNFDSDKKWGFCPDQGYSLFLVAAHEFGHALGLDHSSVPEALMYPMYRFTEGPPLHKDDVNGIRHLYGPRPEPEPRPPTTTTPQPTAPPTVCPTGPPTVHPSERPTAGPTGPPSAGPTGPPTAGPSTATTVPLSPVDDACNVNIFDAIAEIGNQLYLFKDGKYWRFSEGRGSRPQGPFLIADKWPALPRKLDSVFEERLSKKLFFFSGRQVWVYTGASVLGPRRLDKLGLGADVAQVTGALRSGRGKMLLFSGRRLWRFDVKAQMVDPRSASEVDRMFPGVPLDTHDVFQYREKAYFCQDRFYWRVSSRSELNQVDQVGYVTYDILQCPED
smiles,measurement,setting,value
O=C(/C=C/c1ccccc1)c1ccccc1 [Chalcone],inhibition at 50 µM,MMP-9,~76%
same,Inhibition ratio (%) of ear edema,"TPA-induced ear edema; topical 5% in acetone (indomethacin 0.5 mg/ear), 4 hours after TPA",69.3%
same,Δ Ear thickness (um ± S.D),"TPA-induced ear edema; topical 5% in acetone (indomethacin 0.5 mg/ear), 4 hours after TPA, TPA control 176 ± 35",54 ± 22 um
same,Relative potency among chalcone or its derivatives on ear edema,"TPA-induced ear edema; topical 5%, TPA-induced ear edema",greatest potency
same,Tubular (microvascular) network formation of HUVEC,[1],microvascular network was disconnected
same,Result of skin patch test (degree of skin sensitivity),[2],nonreactive (0.0-0.9)
same,inhibition at 50 µM,MMP-1,~75%

# — patent US7572831B2, “Composition containing chalcone” (Angiolab, Inc., priority 2002, dated 2009)
